Assay results as given in paper PMC7773657, “Identification of Compounds With Glucocorticoid Sparing Effects on Suppression of Chemokine and Cytokine Production by Rheumatoid Arthritis Fibroblast-Like Synoviocytes” (Frontiers in Pharmacology, 2020).

Assays:
THP-1 cells = test: TNF stimulated CXCL8 release by THP-1 cells (ELISA); format: cell-based; settings: Homo sapiens, TNF 2 ng/ml, overnight, single agents (Figure 5A), read-out: IC50 for TNF stimulated CXCL8 release (titration experiment with DEX)
Protocol: THP-1 cells (10^5 cells/200 µL/well) and RA FLS (10^4/200 µL/well) were plated in 96 well plates and pre-treated with compound or vehicle for 1 h and then stimulated with either LPS (10 ng/ml), IL-1ß (2 ng/ml) or TNF (2 ng/ml for THP-1 and 1 ng/ml for RA FLS). After 18 h of incubation, supernatants were collected and the levels of cytokines and chemokines in the culture supernatants were measured by ELISA according to the manufacturer’s protocols (R&D systems, Minneapolis, MN).
Drug synergy analysis was performed using Isobologram plots which were calculated according to reported procedures using methods of Chou-Talalay ([Chou and Talalay, 1984]) to compute IC50 and determine synergism. IC50 is computed from the median effect equation. Synergism analysis is carried out using the Combination index (CI)-isobol method. Data analysis was performed using the CompuSyn software available on combisyn.com. Detailed methodology was used as described in a prior report ([Chou, 2006]). […] This is followed by CI-isobol method to quantitatively assess the synergism between these inhibitor drugs. […] From the median effect equation, the estimated dose (i.e., D) necessary to produce the inhibition (i.e. Fa, Fu) obtained by the combination was calculated. […]

NF-κB = NF-κB activation assay in LPS stimulated CellSensor NF-κB-bla THP-1 reporter cells (FRET); format: cell-based, human; settings: THP-1 CellSensor NF-κB-bla reporter cells, LPS 10 ng/ml, 5 h and 16 h
Protocol: The CellSensor® NF-κB-bla THP-1 cell line has a stably integrated ß-lactamase reporter gene under the control of the nuclear factor kappa B (NF-κB) response element. […] In the presence of ß-lactamase, CCF4 was enzymatically cleaved and excitation at 409 nm produced a blue fluorescence signal (at 450 nm). The CellSensor® NF-κB-bla THP-1 cells were dispersed in 96-well plates (5 × 10^4 cells/200 µL/well) and incubated for 4 h. […] After incubation, the ß-lactamase substrate mixture (prepared according to the manufacturer’s protocol) was added to each well. Plates were incubated at room temperature in the dark for 2 h. Fluorescence was measured on a Tecan Infinite M200 plate reader (Tecan, Mannedorf, Switzerland) at an excitation wavelength of 405 nm and emission wavelengths of 465 and 535 nm. Emission ratios are calculated by dividing values from emission wavelength of 465 nm by those from emission wavelength of 535 nm. The response ratio was calculated as follows [(emission ratio of a test well)/average emission ratio of wells with vehicle (0.5% DMSO)] and values were normalized to the LPS control treated wells [response ratio of the compound/response ratio of LPS].

C[C@@H]1C[C@H]2[C@@H]3CCC4=CC(=O)C=C[C@]4(C)[C@@]3(F)[C@@H](O)C[C@]2(C)[C@@]1(O)C(=O)CO [DEX, dexamethasone]
IC50 (THP-1 cells): 300 nM | Inhibition of LPS induced NF-κB activity (NF-κB): inhibited NF-κB activity more potently at 16 h than 5 h

NC(=O)Nc1sc(-c2ccc(F)cc2)cc1C(N)=O [UTC, 5-(4-fluorophenyl)-2-ureidothiophene-3 carboxylic acid amide]
Inhibition of LPS induced NF-κB activity (NF-κB): inhibited NF-κB activity at both time points
